Measurements taken from ChEMBL document CHEMBL1201862, “PubChem BioAssay data set” (2004).
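Dose response: 5 concentrations. Exposure: 48 h. Format: 96-well plates. Endpoint: linear interpolation; highest concentration if not reached. GI50 marks 50% less growth.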 The source made the active and inactive calls. No stated cut-off is given here; in the data, active = GI50 up to about 1.1 µM and inactive = higher.

What was measured:
Test in all cases: DTP human tumour cell line panel, 48 h
OVCAR-5 = system: OVCAR-5
SF-539 = system: SF-539
PC-3 = system: PC-3
NCI/ADR-RES = system: NCI/ADR-RES
Malme-3M = system: Malme-3M
786-0 = system: 786-0
DU-145 = system: DU-145
EKVX = system: EKVX
XF498 = system: XF498
UO-31 = system: UO-31
DMS-114 = system: DMS-114
M19-MEL = system: M19-MEL
NCI-H460 = system: NCI-H460
HCC 2998 = system: HCC 2998
IGROV-1 = system: IGROV-1
OVCAR-8 = system: OVCAR-8
A549 = system: A549
T47D = system: T47D
KM-20L2 = system: KM-20L2
SN12C = system: SN12C
HCT-15 = system: HCT-15
HOP-18 = system: HOP-18
RXF 393 = system: RXF 393
SK-MEL-2 = system: SK-MEL-2
HCT-116 = system: HCT-116
NCI-H226 = system: NCI-H226
HL-60 = system: HL-60
OVCAR-3 = system: OVCAR-3
MDA-N = system: MDA-N
SW-620 = system: SW-620
SNB-75 = system: SNB-75
LXFL 529 = system: LXFL 529
SR = system: SR
KM12 = system: KM12
DMS-273 = system: DMS-273
OVCAR-4 = system: OVCAR-4
Hs-578T = system: Hs-578T
MCF7 = system: MCF7
CCRF-CEM = system: CCRF-CEM
NCI-H522 = system: NCI-H522
HOP-62 = system: HOP-62
MDA-MB-231 = system: MDA-MB-231
UACC-257 = system: UACC-257
SF-295 = system: SF-295
CAKI-1 = system: CAKI-1
M14 = system: M14
TK-10 = system: TK-10
LOX IMVI = system: LOX IMVI
RPMI-8226 = system: RPMI-8226
DLD-1 = system: DLD-1
SF-268 = system: SF-268
U-251 = system: U-251
SNB-78 = system: SNB-78
HT-29 = system: HT-29
SNB-19 = system: SNB-19
BT-549 = system: BT-549
SK-OV-3 = system: SK-OV-3
UACC-62 = system: UACC-62
MOLT-4 = system: MOLT-4
A498 = system: A498
NCI-H23 = system: NCI-H23
SK-MEL-5 = system: SK-MEL-5
K562 = system: K562
SK-MEL-28 = system: SK-MEL-28
COLO 205 = system: COLO 205
ACHN = system: ACHN
MDA-MB-435 = system: MDA-MB-435
HOP-92 = system: HOP-92
RXF 631 = system: RXF 631

O=[N+]([O-])c1ccc(C2=Nn3c(nnc3-c3ccc(Cl)cc3)SC2)o1
GI50 (OVCAR-5): 18.3 µM (inactive)
GI50 (SF-539): 8.81 µM (inactive)
GI50 (PC-3): 5.32 µM (inactive)
GI50 (NCI/ADR-RES): 14.3 µM (inactive)
GI50 (Malme-3M): 6.46 µM (inactive)
GI50 (786-0): 10 µM (inactive)
GI50 (DU-145): 19.2 µM (inactive)
GI50 (EKVX): 10.7 µM (inactive)
GI50 (XF498): 14.3 µM (inactive)
GI50 (UO-31): 3.5 µM (inactive)
GI50 (DMS-114): 4.11 µM (inactive)
GI50 (M19-MEL): 2.78 µM (inactive)
GI50 (NCI-H460): 6.75 µM (inactive)
GI50 (HCC 2998): 2.39 µM (inactive)
GI50 (IGROV-1): 6 µM (inactive)
GI50 (OVCAR-8): 9.91 µM (inactive)
GI50 (A549): 14.3 µM (inactive)
GI50 (T47D): 5.45 µM (inactive)
GI50 (KM-20L2): 5.94 µM (inactive)
GI50 (SN12C): 8.38 µM (inactive)
GI50 (HCT-15): 2.33 µM
GI50 (HOP-18): 19.2 µM (inactive)
GI50 (RXF 393): 11.5 µM (inactive)
GI50 (SK-MEL-2): 10.5 µM (inactive)
GI50 (HCT-116): 5.71 µM (inactive)
GI50 (NCI-H226): 16.4 µM (inactive)
GI50 (HL-60): 0.989 µM (active)
GI50 (OVCAR-3): 3.98 µM (inactive)
GI50 (MDA-N): 6.17 µM (inactive)
GI50 (SW-620): 2.37 µM (inactive)
GI50 (SNB-75): 11.5 µM (inactive)
GI50 (LXFL 529): 4.67 µM (inactive)
GI50 (SR): 0.394 µM (active)
GI50 (KM12): 7.93 µM (inactive)
GI50 (DMS-273): 14 µM (inactive)
GI50 (OVCAR-4): 3.11 µM (inactive)
GI50 (Hs-578T): 5.83 µM (inactive)
GI50 (MCF7): 1.88 µM (inactive)
GI50 (CCRF-CEM): 2.65 µM (inactive)
GI50 (NCI-H522): 0.923 µM (active)
GI50 (HOP-62): 9.12 µM (inactive)
GI50 (MDA-MB-231): 3.24 µM (inactive)
GI50 (UACC-257): 7.38 µM (inactive)
GI50 (SF-295): 10.9 µM (inactive)
GI50 (CAKI-1): 9.2 µM (inactive)
GI50 (M14): 5.46 µM (inactive)
GI50 (TK-10): 14.9 µM (inactive)
GI50 (LOX IMVI): 3.93 µM (inactive)
GI50 (RPMI-8226): 2.1 µM (inactive)
GI50 (DLD-1): 2.06 µM (inactive)
GI50 (SF-268): 10.8 µM (inactive)
GI50 (U-251): 14.1 µM (inactive)
GI50 (SNB-78): 15.8 µM (inactive)
GI50 (HT-29): 3.22 µM (inactive)
GI50 (SNB-19): 13.3 µM (inactive)
GI50 (BT-549): 11.4 µM (inactive)
GI50 (SK-OV-3): 19.3 µM (inactive)
GI50 (UACC-62): 11.1 µM (inactive)
GI50 (MOLT-4): 3.28 µM (inactive)
GI50 (A498): 16.9 µM (inactive)
GI50 (NCI-H23): 7.94 µM (inactive)
GI50 (SK-MEL-5): 10.8 µM (inactive)
GI50 (K562): 2.16 µM (inactive)
GI50 (SK-MEL-28): 12.2 µM (inactive)
GI50 (COLO 205): 2.05 µM (inactive)
GI50 (ACHN): 13.9 µM (inactive)
GI50 (MDA-MB-435): 2.08 µM (inactive)
GI50 (HOP-92): 3.29 µM (inactive)
GI50 (RXF 631): 10.9 µM (inactive)
